Earlier results on one compound are cited in US20250049902A1, “Method of Developing a Peptide-Based Vaccine Conjugated with 1V209” (VERSITECH LIMITED, priority 2021, published 2025).

Data set [1] concerns antigen specific immune responses. Conditions: small molecule simply mixed with antigens, ref [3].
A further data set has as its system TLR7 pathway. The conditions noted are these: reported, ref [3].

In the case of `COCCOc1nc(N)c2[nH]c(=O)n(Cc3ccc(C(=O)O)cc3)c2n1` [1V209, 4-[[6-Amino-7,8-dihydro-2-(2-methoxyethoxy)-8-oxo-9H-purin-9-yl]methyl]-benzoic acid], the “induction of antigen specific immune responses” value in data set [1] is “can hardly induce antigen specific immune responses”. In addition, in the data set with TLR7 pathway, the TLR7 pathway stimulation entry was “can stimulate the TLR7 pathway as an agonist”.
